Several values for one entry are separate records, joined by “and”; a condition that tells them apart may be missing. Equal values may be shown once.
How the values were obtained:
LNCaP cells = assay: MTT colorimetric cell proliferation assay, LNCaP; type: cell-based, human; design: Absorbance 540 nm, single wells (N° 1-10) / Absorbance 540 nm, Mean / LNCaP cell proliferation, Mean: unit not given here; details: for % inhib: vs control
Method: (§1) For the experiments reported in the following established human prostate carcinoma cell lines LNCaP and PC3 (obtained from the American Type Culture Collection Rockville, Md.) were used. The LNCaP cells were cultured in RPMI 1640 medium (Life Technologies, Rockville, Md.), supplemented with 10% Fetal Bovine Serum (FBS) and 1% Penicillin and Streptomycin. The cells were incubated at 37 degree C. in a humidified atmosphere of 5% CO2 in air. Both sets of cell cultures were grown to 80% confluence in 10 cm tissue culture flasks and split 1:8. The cells were plated in 96 cell plates and allowed to attach and reach 60-70% confluence before being used for experimentation. […] Cells that were used as control were incubated with same amount of PBS in complete cell medium. The effects of lycopene (5 mmol/L], selenium (30 ng/ml), zinc (10 μg/ml), serenoa (10 μg/ml), and soya isoflavon (10 μg/ml) were also tested by adding them to the cell culture alone or in combination with the green tea extract and pomegranate extract. The cellular proliferation of the cells was determined using the 3-(4,5-dimethylthiazol-2-yl)-2,5-diphenyltetrazolium (MIT) colorimetric assay following 24 hours of incubation at 37° C. with or without the test agents. The MTT ([…]) was added to all the wells and incubated for a further 2 hr. The plate was than centrifuged at 500×g for 5 min at 4 degree C. The MIT solution was removed from the wells by careful aspiration and buffered DMSO (0.1 ml) was added to each of the wells and plates shaken for 15 mins. The absorbance was measured on a microplate reader at the wavelength of 540 nm. The effect of each compound alone and in combination on cell growth was assessed as the percentage of cell viability in which the untreated control cells were taken as those being completely viable and allowed to grow freely.

PC3 cells = assay: MTT colorimetric cell proliferation assay, PC3; type: cell-based, human; design: Absorbance 540 nm, single wells (N° 1-8) / Absorbance 540 nm, Mean / PC3 cell proliferation, single wells (N° 1-8) / PC3 cell proliferation, Mean: unit not given here; details: for Absorbance 540 nm, single wells (N° 1-8): lycopene 5 mmol/L, selenium 30 ng/ml, zinc 10 μg/ml; for % inhib: vs control
Method: as §1

[1] = Table 1, 24 hours incubation, mean of 10 wells
[2] = Table 2, 24 hours incubation, green tea 40 μg/ml, pomegranate 40 μg/ml
[3] = Table 2, 24 hours incubation, mean of 8 wells

Structure (SMILES)	Absorbance 540 nm, single wells (N° 1-10) (LNCaP cells; Table 1, 24 hours incubation, green tea 40 μg/ml, pomegranate 40 μg/ml, lycopene 5 mmol/L, selenium 30 ng/ml, zinc 10 μg/ml)	Absorbance 540 nm, Mean (LNCaP cells; [1])	% inhib (LNCaP cells; Table 1, 24 hours incubation) [%]	Absorbance 540 nm, single wells (N° 1-8) (PC3 cells; [2])	Absorbance 540 nm, Mean (PC3 cells; [3])	% inhib (PC3 cells; Table 2, 24 hours incubation) [%]	LNCaP cell proliferation, Mean (LNCaP cells; Table 3, 24 hours incubation, mean of 10 wells)	% inhib (LNCaP cells; Table 3, 24 hours incubation) [%]	PC3 cell proliferation, single wells (N° 1-8) (PC3 cells; Table 4, 24 hours incubation, green tea 40 μg/ml, pomegranate 40 μg/ml, serenoa 10 μg/ml, soya isoflavon 10 μg/ml, L-carnitine)	PC3 cell proliferation, Mean (PC3 cells; Table 4, 24 hours incubation, mean of 8 wells)	% inhib (PC3 cells; Table 4, 24 hours incubation) [%]
CC(C)=CCC/C(C)=C/C=C/C(C)=C/C=C/C(C)=C/C=C/C=C(C)/C=C/C=C(C)/C=C/C=C(\C)CCC=C(C)C [C, lycopene]	312 and 317 and 301 and 329 and 315 and 327 and 353 and 341	324	6.4	377 and 314 and 322 and 309 and 299 and 316 and 382 and 308	328	11.4	–	–	–	–	–
[Se] [D, selenium]	–	311	9.8	309 and 341 and 345 and 286 and 292 and 313 and 321 and 374	323	12.7	–	–	–	–	–
[Zn] [E, zinc]	–	325	5.7	355 and 322 and 395 and 344 and 312 and 321 and 339	342	7.8	–	–	–	–	–
C[N+](C)(C)C[C@H](O)CC(=O)[O-] [H, L-carnitine]	–	–	–	–	–	–	347	3.3	366 and 341 and 387 and 320 and 378 and 392 and 385	369	2.6

— US9084812B2, “Composition useful for the prevention or reduction of the progression of prostate cancer” (SIGMA-TAU INDUSTRIE FARMACEUTICHE RIUNITE S.P.A., priority 2008, dated 2015)
